Assay [1] deals with T. b. rhodesiense STIB 900. Description: African sleeping sickness in vitro screening model (Alamar Blue). Type of assay: cell-based, Trypanosoma brucei rhodesiense. The procedure, abridged: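 Bloodstream-form trypomastigotes, 8×10^3/well, were grown in supplemented MEM with 15% horse serum, without hypoxanthine, at 37 °C in 5% CO2. They were exposed for 72 h to seven 3-fold dilutions from 90 to 0.123 μg/mL. Resazurin (Alamar Blue) was added for 2 h, fluorescence read at ex 536/em 588 nm, and IC50 taken as the mean of four values.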
Background: Resazurin is reduced to fluorescent resorufin, in cell work by metabolically active cells.

Assay [2] deals with Leishmania donovani strain MHOM/ET1671L82. Description: Leishmaniasis in vitro screening model (axenic amastigotes, Alamar Blue). It is filed as cell-based. The method, boiled down:
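Axenic L. donovani amastigotes (10^5 per well) from hamster spleen, grown at 37° C in SM medium pH 5.4 with 10% FBS, 5% CO2, exposed to serial 3-fold compound dilutions (30 to 0.041 μg/mL) for 72 h. Alamar Blue added for 2 h, fluorescence read (ex 536/em 588 nm); IC50 from sigmoidal curve versus control cultures.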

In brackets after ≈: the same amount, converted by molar mass.

By IC50 is commonly meant the point on the concentration scale where inhibition reaches its midpoint. With `COc1ccc(B(Oc2cccc3cccnc23)c2cccc(Cl)c2)cc1OC` [Compound 27, (3-Chlorophenyl)(3,4-dimethoxyphenyl)borinic acid quinolin-8-yl ester], the IC50 in assay [1] (Trypanosoma brucei) turned out to be 0.52 µg/mL (≈ 1.29 µM); in assay [2] (Leishmania donovani, read-out: L. donovani IC50) it was 0.47 µg/mL (≈ 1.16 µM).
Regarding `CC1(C)COC(c2cccc(B(Oc3cccc4cccnc34)c3cccc(C4=NC(C)(C)CO4)c3)c2)=N1` [Compound 13, Bis[3-(4,5-dihydro-4,4-dimethyloxazol-2-yl)phenyl]borinic acid 8-hydroxyquinoline ester], the “T. b. rhodesiense IC50” value in assay [1] was found to be 0.5 µg/mL. Moreover, the “L. donovani IC50” value in assay [2] was 0.82 µg/mL.

These data come from patent US20060014723A1, “Anti-parasitic uses of borinic acid complexes” (priority 2004, published 2006).
